Key:
Prothrombin = Prothrombin (Bos taurus, UniProt P00735); test: Inhibitory effect against bovine thrombin
Serine protease 1 = biological target: T1, Serine protease 1 (Bos taurus, UniProt P00760); test: Inhibitory effect of compound was measured in bovine trypsin
T1 sequence (P00760 whole entry): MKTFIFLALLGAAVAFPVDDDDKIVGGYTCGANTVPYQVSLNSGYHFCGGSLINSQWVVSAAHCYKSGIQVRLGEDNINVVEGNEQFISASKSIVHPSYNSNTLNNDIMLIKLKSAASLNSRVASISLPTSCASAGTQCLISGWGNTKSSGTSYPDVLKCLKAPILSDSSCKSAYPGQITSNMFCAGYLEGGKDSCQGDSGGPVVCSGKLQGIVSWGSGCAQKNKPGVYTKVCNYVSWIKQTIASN

[1] = Ratio of inhibitory effect of bovine trypsin to that of bovine thrombin

Row | Structure (SMILES) | Ki (Prothrombin) | Ki (Serine protease 1) | Ratio [1]
1 | NN=C(N)c1ccc(C[C@@H](NC(=O)CNS(=O)(=O)c2ccc3ccccc3c2)C(=O)N2CCCCC2)cc1 | 5.37 µM | 192 µM | –
2 | N=C(N)c1ccc(C[C@@H](NC(=O)CNS(=O)(=O)c2ccc3ccccc3c2)C(=O)N2CCCCC2)cc1 | 0.0065 µM | – | –
3 | NN=C(N)c1ccc(C[C@@H](NC(=O)CNS(=O)(=O)c2ccc3ccccc3c2)C(=O)N2CCCCCC2)cc1 | 2.7 µM | – | –
4 | CN=C(N)c1ccc(C[C@H](NS(=O)(=O)c2ccc3ccccc3c2)C(=O)N2CCCCCC2)cc1 | 0.0455 µM | 545 µM | –
5 | N=C(N)c1ccc(C[C@@H](NC(=O)CNS(=O)(=O)c2ccc3ccccc3c2)C(=O)N2CCCCCC2)cc1 | 0.02 µM | – | –
6 | N=C(N)c1ccc(C[C@H](NS(=O)(=O)c2ccc3cc4ccccc4cc3c2)C(=O)N2CCCCCC2)cc1 | 0.05 µM | – | –
7 | N/C(=N\O)c1ccc(C[C@H](NS(=O)(=O)c2ccc3ccccc3c2)C(=O)N2CCCCCC2)cc1 | – | – | 277
8 | N=C(NN)c1ccc(C[C@H](NS(=O)(=O)c2ccc3cc4ccccc4cc3c2)C(=O)N2CCCCCC2)cc1 | 0.001 µM | – | –
9 | N=C(NN)c1ccc(C[C@H](NS(=O)(=O)c2ccc3ccccc3c2)C(=O)N2CCCCCC2)cc1 | 0.00147 µM | 3.73 µM | 2540

Second part, the molecule after the results:

Row | Ki (Prothrombin) | Ki (Serine protease 1) | Ratio [1] | Structure (SMILES)
10 | 4.32 µM | 81.5 µM | – | CN=C(N)c1ccc(C[C@@H](NC(=O)CNS(=O)(=O)c2ccc3ccccc3c2)C(=O)N2CCCCC2)cc1
11 | – | – | 36 | N=C(NN)c1ccc(C[C@@H](NC(=O)CNS(=O)(=O)c2ccc3ccccc3c2)C(=O)N2CCCCC2)cc1
12 | 13.6 µM | – | – | CCNC(=N)c1ccc(C[C@H](NS(=O)(=O)c2ccc3ccccc3c2)C(=O)N2CCCCCC2)cc1
13 | 0.0524 µM | 8.65 µM | 166 | N=C(N)c1ccc(C[C@H](NS(=O)(=O)c2ccc3ccccc3c2)C(=O)N2CCCCCC2)cc1
14 | – | – | 19 | CNC(=N)c1ccc(C[C@@H](NC(=O)CNS(=O)(=O)c2ccc3ccccc3c2)C(=O)N2CCCCC2)cc1
15 | – | – | 12000 | CNC(=N)c1ccc(C[C@H](NS(=O)(=O)c2ccc3ccccc3c2)C(=O)N2CCCCCC2)cc1
16 | 1.14 µM | 316 µM | – | N=C(NO)c1ccc(C[C@H](NS(=O)(=O)c2ccc3ccccc3c2)C(=O)N2CCCCCC2)cc1
